Consider 16 compounds from ChEMBL document CHEMBL1141026, “Synthesis, in vitro antitrypanosomal and antibacterial activity of phenoxy, phenylthio or benzyloxy substituted quinolones” (Bioorg Med Chem Lett, 2009).

Values after ≈ are worked out from the molar mass of the structure shown.

In one assay the test system is Shigella boydii. The assay is described as follows: Antibacterial activity against Shigella boydii after 24 hrs by agar dilution method. Format: functional. For orientation: Agar dilution tests growth on a series of plates holding different concentrations.
The subject of the next assay is Shigella flexneri. The assay is described as follows: Antibacterial activity against Shigella flexneri after 24 hrs by agar dilution method. Format: functional.
The test system of the next assay is Proteus mirabilis. The assay is described as follows: Antibacterial activity against Proteus mirabilis after 24 hrs by agar dilution method. Format: functional.
Another assay relates to Proteus vulgaris. The experiment in a line: Antibacterial activity against Proteus vulgaris after 24 hrs by agar dilution method. Type of assay: functional.
For the next assay, the system named is Pseudomonas aeruginosa. The assay is described as follows: Antibacterial activity against Pseudomonas aeruginosa after 24 hrs by agar dilution method. Format: functional.
A further assay has as its system Morganella morganii. The experiment in a line: Antibacterial activity against Morganella morganii after 24 hrs by agar dilution method. Type of assay: functional.
A further assay relates to Klebsiella pneumoniae. The experiment in a line: Antibacterial activity against Klebsiella pneumoniae after 24 hrs by agar dilution method. Type of assay: functional.
Assay [1] concerns Salmonella enterica subsp. enterica. The assay is described as follows: Antibacterial activity against Salmonella enteritidis after 24 hrs by agar dilution method. Format: functional, Salmonella enterica subsp. enterica serovar Enteritidis.
The next assay relates to Salmonella typhimurium. The assay is described as follows: Antibacterial activity against Salmonella Typhimurium after 24 hrs by agar dilution method. Type of assay: functional, Salmonella enterica subsp. enterica serovar Typhimurium. The note with it: Salmonella enterica.
In a further assay the test system is Citrobacter freundii. The assay is described as follows: Antibacterial activity against Citrobacter freundii after 24 hrs by agar dilution method. Type of assay: functional.
In another assay the test system is Aeromonas hydrophila. The experiment in a line: Antibacterial activity against Aeromonas hydrophila after 24 hrs by agar dilution method. Type of assay: functional.
The next assay concerns Serratia marcescens. The assay is described as follows: Antibacterial activity against Serratia marcescens after 24 hrs by agar dilution method. Format: functional.
Assay [2] deals with Trypanosoma cruzi. The assay is described as follows: Antitrypanosomal activity against trypomastigotes of Trypanosoma cruzi Tulahuen C2C4 containing lacZ gene in rat L6 cells after 4 days. Format: functional, organism-based. The note with it: L6, 96 h.
The next assay has as its system Staphylococcus aureus. The assay is described as follows: Antibacterial activity against Staphylococcus aureus after 24 hrs by agar dilution method. Format: functional.
In the next assay the test system is Streptococcus pneumoniae. The experiment in a line: Antibacterial activity against Streptococcus pneumoniae after 24 hrs by agar dilution method. Format: functional.
For the next assay, the system named is Staphylococcus. The experiment in a line: Antibacterial activity against Staphylococcus albus after 24 hrs by agar dilution method. Type of assay: functional.
Assay [3] concerns Staphylococcus epidermidis. The assay is described as follows: Antibacterial activity against Staphylococcus epidermidis after 24 hrs by agar dilution method. Format: functional.
In a further assay the test system is Enterococcus faecalis. The experiment in a line: Antibacterial activity against Enterococcus faecalis after 24 hrs by agar dilution method. Format: functional.
In the next assay the test system is Streptococcus. The experiment in a line: Antibacterial activity against gamma-streptococcus after 24 hrs by agar dilution method. Type of assay: functional.
Another assay has as its system Escherichia coli. The assay is described as follows: Antibacterial activity against Escherichia coli after 24 hrs by agar dilution method. Format: functional.
In another assay the test system is Shigella sonnei. The assay is described as follows: Antibacterial activity against Shigella sonnei after 24 hrs by agar dilution method. Type of assay: functional.
Assay [4] concerns Trypanosoma cruzi. The assay is described as follows: Antitrypanosomal activity against Trypanosoma cruzi amastigotes at 250 uM.

Consider `CCn1cc(C(=O)O)c(=O)c2cc(F)c(Oc3ccc(C)cc3)c(F)c21`, for which the MIC (in general, the lowest concentration found to suppress growth) in the assay on Shigella boydii was 6.25 µg/mL (≈ 17.4 µM); with Shigella flexneri, above 25 µg/mL; in the assay with Proteus mirabilis, 25 µg/mL (≈ 69.6 µM); in the assay with Proteus vulgaris, above 25 µg/mL; against Pseudomonas aeruginosa, above 25 µg/mL; with Morganella morganii it was 25 µg/mL (≈ 69.6 µM). Besides, the MIC with Klebsiella pneumoniae was 6.25 µg/mL (≈ 17.4 µM); in assay [1] it was 25 µg/mL (≈ 69.6 µM); against Salmonella typhimurium it was 25 µg/mL (≈ 69.6 µM); against Citrobacter freundii, 12.5 µg/mL (≈ 34.8 µM); in the assay on Aeromonas hydrophila it was 25 µg/mL (≈ 69.6 µM); in the assay on Serratia marcescens it was above 25 µg/mL. Moreover, the MIC is 0.78 µg/mL (≈ 2.17 µM) in the assay on Staphylococcus aureus; 0.39 µg/mL (≈ 1.09 µM) against Streptococcus pneumoniae; 12.5 µg/mL (≈ 34.8 µM) in the assay on Staphylococcus; 6.25 µg/mL (≈ 17.4 µM) in [3]; above 25 µg/mL with Enterococcus faecalis; above 25 µg/mL against Streptococcus. In addition, the MIC is 25 µg/mL (≈ 69.6 µM) in the assay on Escherichia coli and 12.5 µg/mL (≈ 34.8 µM) in the assay with Shigella sonnei. Further, the IC50 (commonly the concentration needed to halve the response being measured) with Trypanosoma cruzi [2] stood at 18.3 µg/mL (≈ 50.9 µM).
`O=C(O)c1cn(C2CC2)c2c(Sc3ccccc3)c(Sc3ccccc3)c(F)cc2c1=O` registered an IC50 in the assay with Trypanosoma cruzi [2] of 17.8 µg/mL (≈ 38.4 µM).
Take `CCn1cc(C(=O)O)c(=O)c2cc(F)c(N3CCNC(C)C3)c(F)c21` (stereo not given) [LOMEFLOXACIN]: the MIC with Shigella boydii is 0.098 µg/mL (≈ 0.279 µM); with Shigella flexneri, 0.78 µg/mL (≈ 2.22 µM); in the assay on Proteus mirabilis, 0.39 µg/mL (≈ 1.11 µM); in the assay on Proteus vulgaris, 0.78 µg/mL (≈ 2.22 µM); in the assay with Pseudomonas aeruginosa, 3.13 µg/mL (≈ 8.91 µM); with Morganella morganii it was 0.195 µg/mL (≈ 0.555 µM). Further, the MIC against Klebsiella pneumoniae turned out to be 0.098 µg/mL (≈ 0.279 µM); in assay [1], 0.098 µg/mL (≈ 0.279 µM); against Salmonella typhimurium it was 0.195 µg/mL (≈ 0.555 µM); with Citrobacter freundii it was 0.098 µg/mL (≈ 0.279 µM); against Aeromonas hydrophila it was 6.25 µg/mL (≈ 17.8 µM); against Serratia marcescens, 0.195 µg/mL (≈ 0.555 µM). In addition, the minimal inhibitory concentration (MIC) against Staphylococcus aureus was determined as 0.78 µg/mL (≈ 2.22 µM); in the assay with Streptococcus pneumoniae, 0.195 µg/mL (≈ 0.555 µM); against Staphylococcus, 3.13 µg/mL (≈ 8.91 µM); in assay [3], 0.78 µg/mL (≈ 2.22 µM); against Enterococcus faecalis, 25 µg/mL (≈ 71.2 µM); in the assay on Streptococcus, 6.25 µg/mL (≈ 17.8 µM). Besides, the MIC in the assay on Escherichia coli and with Shigella sonnei was 0.098 µg/mL (≈ 0.279 µM) each time.
On to `O=C(O)c1cn(C2CC2)c2c(F)c(OCc3ccccc3)c(F)cc2c1=O`, for which the MIC in the assay on Shigella boydii was 1.56 µg/mL (≈ 4.2 µM); in the assay with Shigella flexneri, above 25 µg/mL; in the assay on Proteus mirabilis, 6.25 µg/mL (≈ 16.8 µM); in the assay on Proteus vulgaris, 6.25 µg/mL (≈ 16.8 µM); with Pseudomonas aeruginosa, 6.25 µg/mL (≈ 16.8 µM); in the assay with Morganella morganii, 6.25 µg/mL (≈ 16.8 µM). The MIC with Klebsiella pneumoniae was 0.78 µg/mL (≈ 2.1 µM); in assay [1], 3.13 µg/mL (≈ 8.43 µM); in the assay on Salmonella typhimurium, 1.56 µg/mL (≈ 4.2 µM); in the assay with Citrobacter freundii, 1.56 µg/mL (≈ 4.2 µM); in the assay with Aeromonas hydrophila, 3.13 µg/mL (≈ 8.43 µM); in the assay with Serratia marcescens, 6.25 µg/mL (≈ 16.8 µM). Besides, the MIC with Staphylococcus aureus came out at 1.56 µg/mL (≈ 4.2 µM); against Streptococcus pneumoniae it was 1.56 µg/mL (≈ 4.2 µM); against Staphylococcus, 6.25 µg/mL (≈ 16.8 µM); in assay [3] it was 1.56 µg/mL (≈ 4.2 µM); in the assay with Enterococcus faecalis it was 12.5 µg/mL (≈ 33.7 µM); with Streptococcus, 6.25 µg/mL (≈ 16.8 µM). The MIC with Escherichia coli and against Shigella sonnei was 1.56 µg/mL (≈ 4.2 µM) throughout. This compound also had an IC50 in the assay on Trypanosoma cruzi [2] above 90 µg/mL.
On to `CCn1cc(C(=O)O)c(=O)c2cc(F)c(Sc3ccccc3)c(Sc3ccccc3)c21`, for which it took 19.3 µg/mL (≈ 42.7 µM) to reach half-maximal inhibition in the assay with Trypanosoma cruzi [2] (IC50).
`O=C(O)c1cn(C2CC2)c2cc(N3CCNCC3)c(F)cc2c1=O` [CIPROFLOXACIN] gave an Activity in the assay on Trypanosoma cruzi [4] of 26%.
`CCn1cc(C(=O)O)c(=O)c2cc(F)c(Sc3ccc(Cl)cc3)c(Sc3ccc(Cl)cc3)c21` returned an IC50 in the assay on Trypanosoma cruzi [2] of 16.3 µg/mL (≈ 31.3 µM).
In the case of `O=C(O)c1cn(C2CC2)c2c(F)c(Oc3ccccc3)c(F)cc2c1=O`, the MIC against Shigella boydii is 1.56 µg/mL (≈ 4.37 µM); in the assay with Shigella flexneri it was above 25 µg/mL; in the assay with Proteus mirabilis, 6.25 µg/mL (≈ 17.5 µM); against Proteus vulgaris, 6.25 µg/mL (≈ 17.5 µM); against Pseudomonas aeruginosa, 12.5 µg/mL (≈ 35 µM); against Morganella morganii, 3.13 µg/mL (≈ 8.76 µM). The MIC against Klebsiella pneumoniae was determined as 1.56 µg/mL (≈ 4.37 µM); in [1], 3.13 µg/mL (≈ 8.76 µM); against Salmonella typhimurium, 3.13 µg/mL (≈ 8.76 µM); against Citrobacter freundii, 1.56 µg/mL (≈ 4.37 µM); in the assay on Aeromonas hydrophila, 6.25 µg/mL (≈ 17.5 µM); with Serratia marcescens, 12.5 µg/mL (≈ 35 µM). Besides, the MIC is 0.39 µg/mL (≈ 1.09 µM) in the assay with Staphylococcus aureus; 0.098 µg/mL (≈ 0.274 µM) in the assay with Streptococcus pneumoniae; 1.56 µg/mL (≈ 4.37 µM) with Staphylococcus; 1.56 µg/mL (≈ 4.37 µM) in [3]; 12.5 µg/mL (≈ 35 µM) in the assay on Enterococcus faecalis; above 25 µg/mL in the assay on Streptococcus. Further, the results for the MIC in the assay on Escherichia coli and in the assay on Shigella sonnei were 3.13 µg/mL (≈ 8.76 µM) and 1.56 µg/mL (≈ 4.37 µM), respectively. This compound showed an IC50 with Trypanosoma cruzi [2] above 90 µg/mL.
In the case of `O=C(Cn1ccnc1[N+](=O)[O-])NCc1ccccc1` [BENZNIDAZOLE], in the assay on Trypanosoma cruzi [2], the IC50 was determined as 0.83 µg/mL (≈ 3.19 µM).
As for `CCn1cc(C(=O)O)c(=O)c2cc(F)c(OCc3ccccc3)c(F)c21`, the MIC against Shigella boydii is 25 µg/mL (≈ 69.6 µM); against Shigella flexneri, above 25 µg/mL; against Proteus mirabilis, above 25 µg/mL; with Proteus vulgaris, above 25 µg/mL; against Pseudomonas aeruginosa it was above 25 µg/mL; with Morganella morganii it was above 25 µg/mL. Moreover, the MIC is 6.25 µg/mL (≈ 17.4 µM) in the assay on Klebsiella pneumoniae; above 25 µg/mL in [1]; 25 µg/mL (≈ 69.6 µM) against Salmonella typhimurium; 25 µg/mL (≈ 69.6 µM) against Citrobacter freundii; above 25 µg/mL in the assay on Aeromonas hydrophila; above 25 µg/mL in the assay with Serratia marcescens. The MIC with Staphylococcus aureus is 6.25 µg/mL (≈ 17.4 µM); against Streptococcus pneumoniae it was 1.56 µg/mL (≈ 4.34 µM); in the assay with Staphylococcus, above 25 µg/mL; in [3], 25 µg/mL (≈ 69.6 µM); in the assay with Enterococcus faecalis, above 25 µg/mL; in the assay on Streptococcus, above 25 µg/mL. Besides, the MIC in the assay on Escherichia coli was above 25 µg/mL; against Shigella sonnei, 12.5 µg/mL (≈ 34.8 µM). The compound further came in with an IC50 with Trypanosoma cruzi [2] of 18.3 µg/mL (≈ 50.9 µM).
On to `CCn1cc(C(=O)O)c(=O)c2cc(F)c(Oc3ccc(Cl)cc3Cl)c(Oc3ccc(Cl)cc3Cl)c21`, for which the midpoint of inhibition with Trypanosoma cruzi [2], the IC50, lay at 12.7 µg/mL (≈ 22.8 µM).
Still for that read-out and setting: for `CCn1cc(C(=O)O)c(=O)c2cc(F)c(Oc3ccccc3)c(Oc3ccccc3)c21` the value was above 90 µg/mL; for `CCn1cc(C#N)c(=O)c2cc(F)c(Oc3ccccc3)c(Oc3ccccc3)c21`, above 90 µg/mL; for `CCn1cc(C(=O)O)c(=O)c2cc(OCc3ccccc3)c(OCc3ccccc3)c(OCc3ccccc3)c21`, 2.5 µg/mL (≈ 4.67 µM).
The same measure, in the same setting: then `CCn1cc(C(=O)O)c(=O)c2cc(F)c(OCc3ccccc3)c(OCc3ccccc3)c21`, with 1.3 µg/mL (≈ 2.91 µM); and `CCn1cc(C(=O)O)c(=O)c2cc(Sc3ccccc3)c(Sc3ccccc3)c(Sc3ccccc3)c21`, with 39.9 µg/mL (≈ 73.7 µM).
